Experimental data published in paper PMC3656124, “DNA Topoisomerase II Is Involved in Regulation of Cyst Wall Protein Genes and Differentiation in Giardia lamblia” (PLoS Neglected Tropical Diseases, 2013).

Molecular target: T1, Topo II (Giardia duodenalis, UniProt E2RU90)
T1 construct: gene GL50803_0016975
T1 sequence (E2RU90 1-1491): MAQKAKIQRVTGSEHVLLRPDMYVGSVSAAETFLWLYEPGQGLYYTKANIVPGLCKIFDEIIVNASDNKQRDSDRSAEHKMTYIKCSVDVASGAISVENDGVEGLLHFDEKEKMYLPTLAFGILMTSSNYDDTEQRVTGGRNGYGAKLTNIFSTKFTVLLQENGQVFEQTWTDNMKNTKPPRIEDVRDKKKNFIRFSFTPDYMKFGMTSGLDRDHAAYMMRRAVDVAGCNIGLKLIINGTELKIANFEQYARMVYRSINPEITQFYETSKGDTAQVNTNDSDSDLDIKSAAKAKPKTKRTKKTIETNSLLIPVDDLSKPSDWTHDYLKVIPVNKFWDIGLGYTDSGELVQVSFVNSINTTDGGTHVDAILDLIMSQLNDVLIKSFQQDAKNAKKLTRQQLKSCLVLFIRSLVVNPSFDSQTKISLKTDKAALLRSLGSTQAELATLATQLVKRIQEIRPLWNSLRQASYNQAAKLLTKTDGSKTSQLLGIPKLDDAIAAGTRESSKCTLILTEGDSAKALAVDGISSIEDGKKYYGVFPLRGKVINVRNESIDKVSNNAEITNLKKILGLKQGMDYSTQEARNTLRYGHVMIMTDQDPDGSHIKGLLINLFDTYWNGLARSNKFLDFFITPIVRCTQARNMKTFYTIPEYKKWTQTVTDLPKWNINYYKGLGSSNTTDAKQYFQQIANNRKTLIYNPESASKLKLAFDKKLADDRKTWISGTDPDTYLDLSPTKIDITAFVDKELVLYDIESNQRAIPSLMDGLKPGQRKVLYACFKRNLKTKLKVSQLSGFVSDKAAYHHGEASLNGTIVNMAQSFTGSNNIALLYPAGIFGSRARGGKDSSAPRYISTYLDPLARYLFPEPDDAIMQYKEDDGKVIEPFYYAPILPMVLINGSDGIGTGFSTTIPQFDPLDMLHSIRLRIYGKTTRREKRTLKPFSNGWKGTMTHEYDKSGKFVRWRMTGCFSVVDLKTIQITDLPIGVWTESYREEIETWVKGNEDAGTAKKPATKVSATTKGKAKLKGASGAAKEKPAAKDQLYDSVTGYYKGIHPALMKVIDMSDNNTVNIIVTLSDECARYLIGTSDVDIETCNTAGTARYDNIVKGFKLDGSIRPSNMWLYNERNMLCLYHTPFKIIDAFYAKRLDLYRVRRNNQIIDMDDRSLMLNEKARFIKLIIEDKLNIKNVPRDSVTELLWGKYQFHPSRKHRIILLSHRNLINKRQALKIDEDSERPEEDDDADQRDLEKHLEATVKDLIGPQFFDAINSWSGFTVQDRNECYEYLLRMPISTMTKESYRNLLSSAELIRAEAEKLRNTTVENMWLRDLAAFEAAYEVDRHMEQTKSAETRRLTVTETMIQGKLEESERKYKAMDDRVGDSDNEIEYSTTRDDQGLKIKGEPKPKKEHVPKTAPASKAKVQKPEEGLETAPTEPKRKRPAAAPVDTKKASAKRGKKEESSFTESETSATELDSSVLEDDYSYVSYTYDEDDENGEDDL
Experiment: pUC119 plasmid DNA cleavage assay, agarose gel
Assay type: biochemical
Details: 12 mM etoposide in Me2SO (Me2SO alone also raised cleavage); 5 mM Mg2+, pH 7.5, 37 °C; traps cleavage complex

`COc1cc([C@@H]2c3cc4c(cc3[C@@H](O[C@@H]3O[C@@H]5CO[C@@H](C)O[C@H]5[C@H](O)[C@H]3O)[C@H]3COC(=O)[C@H]23)OCO4)cc(OC)c1O` [etoposide] was tested. Which “increase of DNA cleavage activity” value did it give?
The value was “addition of etoposide slightly increased DNA cleavage activity of Topo II”.
